These results are taken from patent US20040156874A1, “Urea- a topical anti-inflammatory” (Bradley Pharmaceuticals, Inc., priority 2003, published 2004).

The structures appear in SMILES notation.

Assay [1] concerns horny layer of the skin. Conditions: normal horny layer or ichthyotic/psoriatic scales soaked in 30% urea solution; cited from earlier work.
Assay [2] relates to dermal inflammation. Briefly: topical urea applied to inflamed skin. Type of assay: in vivo.
Assay [3] has as its system common organisms. To be noted: high concentrations of urea, such as 40%; cited from earlier work.

As for `NC(N)=O` [urea], in assay [1], the “water uptake of horny layer” value was “take up much more water”. In assay [2] (formulated in a pharmaceutically acceptable base), the dermal inflammation entry is listed as “improvement”. The “effectiveness against inflammation due to microbial infection” value in assay [2] (inflammation due to microbial infection) is listed as “particularly effective”. Further, the antibacterial effect entry in assay [3] was “mild, antibacterial effect”.
